Measured values reported in patent US20060270019A1, “Method for producing lactic acid bacterium culture containing bacteriocin and a method for preserving food products for by using it” (Ajinomoto Co., Inc., priority 2003, published 2006).
Positions of bridges follow the written chain, without caps; N, C: chain ends. Non-standard residues stand in square brackets, D forms with d. No end group written: not given here.

What was measured:
Format in all cases: cell-based
[1] = system: Lactobacillus sakei strain JCM1157; experiment: Inhibitory zone of lactic acid bacteria on MRS agar plate containing protease (Umamizyme G), overlaid with indicator strain; conditions: Protease 0 U/ml, Nisin A spotted as 10 μl of 1000 IU/ml
Method: The collected lactic acid bacteria are cultivated in the heretofore described manner. Then, the lactic acid bacteria are inoculated and cultivated for 24 hours on a plate of MRS agar medium to which filtrated Umamizyme G (a protease derived from Aspergillus oryzaeproteases; Amano Enzyme Co) is added. Subsequently, the Lactobacilli AOAC medium (Table 3) into which an indicator strain is initially mixed is overlaid on the plate and cultivated for 24 hours, to form an inhibitory zone of the indicator strain.
Weissella sp. AJ110263 (FERM BP-10474) separated from fermented milk Matsoon and Pediococcus pentosaceus JCM5885, Pediococcus pentosaceus JCM5890, Lactobacillus plantarum JCM1149 and Lactobacillus salivarius obtained from the type cultures were initially cultivated followed by cultivation in the MRS medium (Table 1). […]
Lactococcus lactis NCDO497 (a nisinA producer) and Lactococcus lactis NCIMB702054 (a nisin Z producer) were cultivated in the MRS medium at 30° C. In the same manner as in Example 1, the antimicrobial activity was evaluated, using Lactobacillus sakei strain JCM1157 as an indicator strain.
Additionally, the antimicrobial activity was evaluated, by spotting 10 μl of a 1000 IU/ml solution of Nisin A, ICN Biomedical Inc. instead of using the nisin producer, on the plate of the MRS agar medium.

[2] = system: Bacillus subtilis IAM1381; experiment: Bacteriocin as substitute for salt in soy sauce manufacturing process: viable cell count of contaminating bacterium; conditions: soy sauce koji test, first day of fermentation up to day 7
Method: Soybean (10 g) and pure water (10 ml) were individually added into six Erlenmeyer flasks (200-ml volume) and sterilized in an autoclave at 120° C. for 30 minutes. After cooling, 0.04 g of koji mold(Purple 1, NO.1 bacterium for soy sauce) was added, and cultivated statically at 30° C. for 2 days. 40 ml of sterile pure water were added to cultivated sample (Sample No.1), 40 ml of salt solution which adjusted the salt content of the sample to 18% to Sample No.2, 40 ml of a culture supernatant of Lactococcus lactis NCIMB702054 (the bacterium producing nisin Z) to Sample No.3 and 40 ml of a culture supernatant of Weissella sp. AJ110263 (FERM BP-10474) to Sample No.4, 40 ml of a culture supernatant of Pediococcus pentosaseceus JCM5885 to Sample 5 and 40 ml of a culture supernatant of Lactobacillus salivarius JCM1231 to Sample 6. The resulting mixtures were then adjusted to pH 6.5 to 7.0, using 6N hydrochloric acid and 6N NaOH passed through a filter.
200 μl of Bacillus subtilis IAM1381 cultivated in the TSBYE medium by a shaker at 30° C. for 20 hours was additionally inoculated, mixed thoroughly and cultivated at 30° C. On days 1, 2 and 7 of the cultivation, the broth was collected to count the viable cells of Bacillus subtilis IAM1381 on the GAM agar medium (GAM bouillon “NISSUI”, Nissui Pharmaceutical Co., Ltd.). […]

[3] = system: Listeria innocua ATCC33090; experiment: Aging of ground beef inoculated with Listeria: viable cell count; conditions: first day of aging up to day 7
Excerpt: The broths obtained by cultivating Lactococcus lactis NCIMB702054 (a strain producing NisinZ) and Weissella sp.AJ110263 (FERM BP-10474) in MRS culture media were adjusted to pH 5.5 with sodium hydroxide. Subsequently, the bacteria were removed from the pH adjusted culture liquid by centrifucation to obtain a supernatant. The broths containing lactic acid bacteria and the supernatants were used in the experiment described below.
5 g of ground meat of Black hair Japanese beef were individually put into six aseptic Falcon tubes (Becton Dickinson Co.50-ml volume) and 5 ml of saline were added to the meat(Sample No.1), 5 ml of 18% salt solution to Sample No.2, 5 ml of the supernatant of Lactococcus lactis NCIMB702054 to Sample No.3, 5 ml of the broth of Lactococcus lactis NCIMB702054 to Sample No.4, 5 ml of the supernatant of Weissella sp. AJ110263 to Sample No.5, 5 ml of the broth of Weissella sp. AJ110263 to Sample No.6. Further, Listeria innocua ATCC33090, statically cultivated in TSBYE medium at 37° C. for 24 hours, was added to the samples in the amount of 10^8 cfu/ml and the samples were aged at ambient temperature. The samples aged for one day and seven days were collected to count the viable cells of Listeria innocua ATCC33090 in the Listeria selection medium (Oxoid Inc.).

Molecule | Diameter(mm) of Inhibitory Zone of Strain not producing PRB [1] | contamination by Bacillus subtilis IAM1381 (in words) [2] | contaminating Listeria innocua ATCC33090 count [3]
Nisin A (I[dehydrobutyrine]SI[dehydroalanine]LCTPGCKTGALMGCNMKTATCHCSIHV[dehydroalanine]K; bridge 23-26, 13-19, 8-11, 25-28, 3-7; not fully specified (residues 3, 8, 13, 23, 25, bridges); UniProt P13068 24-57, looked up) [Nisin A, ICN Biomedical Inc., bacteriocin spotted instead of a nisin producer] | 30 mm | – | –
[Cl-].[Na+] [salt, sodium chloride] | – | no contamination occurred | ≥ 10^5 cfu/ml
